Test results as given in PubChem BioAssay AID179 (DTP/NCI, 2004).
The source made the active and inactive calls.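 The calls were made as follows: active = compounds giving half or more protection of infected cells from virus-caused growth loss, again on retest; inactive = the rest.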 Where a SMILES comes first, the peptide text is derived from it.

System: CEM cells HIV-1 protection, formazan growth assay
Assay: NCI AIDS Antiviral Assay
Conditions: for IC50: measured here: growth of uninfected CEM cells
Procedure, shortened: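 Screen of anti-HIV-1 activity in human CEM cells using a formazan-based growth measurement at five drug concentrations. Hits with 50% or greater protection were repeated, and confirmation required reproducible complete protection.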

| Compound | outcome | EC50 | IC50 |
| --- | --- | --- | --- |
| COc1ccccc1-c1cc(=O)c2cc(C)c(C)c(C(=O)O)c2o1 | inactive |  |  |
| CCCCCOCC(=O)OC |  | > 200 µM | 112 µM |
| CC1CC(c2ccc(Cl)cc2)=Nc2ccccc2S1 (stereo not drawn) |  | > 6.92 µM | > 6.92 µM |
| O=P1(c2ccccc2)C=C(c2ccccc2)NC(c2ccccc2)=C1 | inactive |  |  |
| COc1ccc(Cc2c3cc(O)c(=O)cc-3ccn2C)cc1OC |  | > 15.8 µM | 8.13 µM |
| CC(=O)/C(=C/n1c(=S)sc2ccccc21)C(=O)Nc1ccc([N+](=O)[O-])cc1 |  | > 129 µM | 95.5 µM |
| CC12NN=NC1C(=O)NC2=O (stereo not drawn) |  | > 200 µM | > 200 µM |
| Cc1nn(-c2ccccc2)c2nc3ccc(Cl)cc3c(-c3ccccc3)c12 |  | > 200 µM | > 200 µM |
| COC1/C=C/OC2(C)Oc3c(C)c(O)c4c(O)c(c(/C=N/N5C(C)CN(Cc6ccccc6O)CC5C)c(O)c4c3C2=O)NC(=O)/C(C)=C\C=C\C(C)C(O)C(C)C(O)C(C)C(OC(C)=O)C1C (stereo not drawn) |  | > 200 µM | 9.55 µM |
| OCC1OC2c3ccccc3COC2C1OCc1ccccc1 (stereo not drawn) | inactive |  |  |
| NCCCc1nonc1C(=O)O |  | > 200 µM | > 200 µM |
| CC(=O)C1c2ccccc2C(C(C)=O)(c2ccccc2)C1c1ccccc1 (stereo not drawn) |  | > 200 µM | 38 µM |
| CCCCC(C=O)(C=C=C(C)C)CC (stereo not drawn) |  | > 339 µM | 34.7 µM |
| Cc1nc(C)c(N2CCNCC2)c(=O)[nH]1 | inactive |  |  |
| C[C@]12CC[C@H](OC(=O)/C=C\c3cccc(N(CCCl)CCCl)c3)CC1CC[C@@H]1C2CC[C@]2(C)NC(=O)CCC12 (stereo partly drawn) | inactive |  |  |
| COC(=O)CSc1[nH]c2nc(C)nc(Nc3ccccc3)c2c1C#N |  | > 200 µM | > 200 µM |
| O=Cc1cc(C(=O)OCc2ccccc2)n(S(=O)(=O)c2ccccc2)c1 |  | > 200 µM | 17.4 µM |
| Cc1ccc(C2(C(=O)O)CCCN2)cc1 (stereo not drawn) |  | > 200 µM | > 200 µM |
| Nc1nc2c(ncn2CC2COC(CO)O2)c(=O)[nH]1 (stereo not drawn) |  | > 468 µM | > 468 µM |
| S=P(N1CCOCC1)(N1CC1)N1CC1 |  | > 200 µM | 5.25 µM |
| CCCCC1C=Cn2c(=O)oc3c(OC(C)C)c(C)c(O)c1c32 (stereo not drawn) |  | > 200 µM | 2.51 µM |
| O=C(O)c1ccc(CS(=O)c2ccc([N+](=O)[O-])cc2)c([N+](=O)[O-])c1 (stereo not drawn) |  | > 708 µM | 501 µM |
| C[Si](C)(C)OC1c2[nH]c3ccccc3c2CN2C(=O)CCC12 (stereo not drawn) |  | > 200 µM | > 200 µM |

| Compound | outcome | EC50 | IC50 |
| --- | --- | --- | --- |
| CC(C)(C)C1CCP(=O)(c2ccccc2)CC1 (stereo not drawn) |  | 0.0631 µM | > 200 µM |
| Cc1ccc2c(c1)C1(C)OC(C=CC1=O)O2 (stereo not drawn) |  | > 3.16 µM | 0.525 µM |
| CC(=O)OCCn1cnc2nc(Nc3ccccc3)nc(Cl)c21 |  | > 200 µM | 70.8 µM |
| CCOC(Cc1c(N)[nH]c(=S)[nH]c1=O)OCC |  | > 200 µM | > 200 µM |
| CCCNC(=O)C1C(=O)C(=O)N(CCC)C1=O (stereo not drawn) | inactive |  |  |
| COc1cc2cc3c4cc(OC)c(OC)cc4cc(C)[n+]3cc2cc1OC | inactive |  |  |
| O=C1CNC(=O)c2c(ncn2C2OC(CO)CC2O)N1 (stereo not drawn) |  | > 302 µM | > 302 µM |
| COc1cc(/C=C2\C(=O)N(c3ccc(NC(C)=O)cc3)C(c3ccccc3)S2(=O)=O)cc(OC)c1OC (stereo not drawn) |  | > 200 µM | 87.1 µM |
| Cc1nc(C(=O)O)c(C(=O)O)[nH]1 |  | > 200 µM | > 200 µM |
| CCOC(=O)NC(=O)c1cn(CCCCCCCCCCC(=O)NCCCN2CCN(CCCNC(=O)CCCCCCCCCCn3cc(C(=O)NC(=O)OCC)c(=O)[nH]c3=O)CC2)c(=O)[nH]c1=O | inactive |  |  |
| CC(=O)C1C(=O)OC2C3C=CC(C3)C2C1=O (stereo not drawn) |  | > 309 µM | > 309 µM |
| O=C(NNC1=NCCCCN1)Nc1ccc(Cl)cc1 |  | 107 µM | > 200 µM |
| C=C1C(=O)OC2/C=C(\C)CC(O)/C=C(/CO)CC(OC(=O)/C(C)=C/C)C12 (stereo not drawn) |  | > 100 µM | 53.7 µM |
| Cc1ccc(C(=O)C(c2nc3n(c2O)C(=N)N=N3)c2nc3n(c2O)C(=N)N=N3)cc1 (stereo not drawn) |  | > 12.9 µM | > 12.9 µM |
| Cn1c2c(c3ccccc31)CCN(CCCCN1CCc3c(n(C)c4ccccc34)C1=O)C2 |  | > 40.7 µM | > 40.7 µM |
| Cc1cc2c(C)nn(Cc3ccccc3)c2c(C(N)=O)c1C | inactive |  |  |
| COc1cccc2c1C(=O)c1c(O)c3c(c(O)c1C2=O)C[C@@](O)(C(=O)CO)C[C@@H]3OC1CC(N2CCOCC2)C(O)C(C)O1 (stereo partly drawn) | inactive |  |  |
| OCc1ccc2c(c1)CC1(Cc3ccc(/C=N/O)cc3C1)C2 (stereo not drawn) |  | > 200 µM | 0.891 µM |
| COc1cc(N2C(=O)C(=O)C3(CCCCC3)C2=O)cc(OC)c1OC |  | > 200 µM | > 200 µM |
| Nc1ccccc1SSc1ccccc1C(=O)O |  | 35.5 µM | 41.7 µM |
| O=C(Nc1cc2c(cc1OCc1ccccc1)N(S(=O)(=O)c1ccccc1)[C@@H]1c3ccccc3OC[C@H]21)c1ccccc1 |  | > 200 µM | > 200 µM |
| COC(=O)C1CCC(=S)N1C(=O)OCc1ccccc1 (stereo not drawn) |  | > 200 µM | > 200 µM |
| Cc1cc(=O)oc2c3c4c(cc12)CCCN4CCC3 |  | > 14.8 µM | > 14.8 µM |

| Compound | outcome | EC50 | IC50 |
| --- | --- | --- | --- |
| Nc1cc2nc(=O)cc3n2c(n1)SC3 |  | > 67.6 µM | > 67.6 µM |
| CN(N)/N=N/c1nc[nH]c1C(N)=O |  | > 2 µM | 1.45 µM |
| Cc1ccccc1NC(=O)C(=O)C(C#N)c1ccccc1C (stereo not drawn) |  | > 17.8 µM | > 17.8 µM |
| COCc1nc(C#N)c(N)o1 |  | > 200 µM | > 200 µM |
| Cc1ccc2c(c1)C1(OC(=O)c3ccccc31)c1ccc(F)cc1O2 (stereo not drawn) |  | > 91.2 µM | 22.9 µM |
| Cc1ccc(NC(=O)OCC(COc2ccc(Cl)cc2Cl)OC(=O)Nc2ccc(C)cc2)cc1 (stereo not drawn) |  | > 2.88 µM | > 2.88 µM |
| CCOc1ccccc1NC(=O)CSc1nnc(Cc2ccccc2)o1 |  | > 182 µM | 10 µM |
| S=C(S)N1CCN(c2ccccc2)CC1 |  | > 200 µM | > 200 µM |
| O=C1OCC(Cc2ccc(O)c(O)c2)[C@H]1Cc1ccc(O)c(O)c1 (stereo partly drawn) |  | > 200 µM | 19.1 µM |
| CC(C)(/C=N\O)NO |  | > 200 µM | > 200 µM |
| O=c1oc2ccccc2c(O)c1C(c1cc(OCc2ccccc2)cc(OCc2ccccc2)c1)c1c(O)c2ccccc2oc1=O |  | > 200 µM | 9.55 µM |
| CC(C)CC(NC(=O)C(NC(=O)C(CO)NC(=O)C(C)NC(=O)C(CCCN=C(N)N)NC(=O)C(C)NC(=O)CN)C(C)C)C(=O)NC(CO)C(N)=O (stereo not drawn) (H-GARASVLS-NH2; configuration not given here) | inactive |  |  |
| CCOP(=S)(OCC)OC(=O)C(C)SSC (stereo not drawn) (tested in a mixture with another compound) |  | > 200 µM | 95.5 µM |
| Cc1cccc(C)c1NC(=O)/C(=N/NC(N)=S)C(C)C(=O)c1ccc(Cl)cc1 (stereo not drawn) |  | > 44.7 µM | > 44.7 µM |
| O=C(CCC(=O)Nc1ccc(Cl)c(Cl)c1)Cc1nc2ccccc2o1 |  | > 182 µM | > 182 µM |
| Nc1nc(Cl)cc(NCC2(CO)CCC(OCc3ccccc3)C2)n1 (stereo not drawn) |  | 14.5 µM | 17.8 µM |
| CC(O)C(NCNC(=O)C1=C(O)C2(O)C(=O)C3=C(O)c4c(O)cccc4C(C)(O)C3CC2C(N(C)C)C1=O)C(=O)O (stereo not drawn) |  | > 37.2 µM | > 37.2 µM |
| CCOC(=N)N1CCCCC1 |  | > 200 µM | > 200 µM |
| Cc1cc(S(=O)(=O)Nc2nc(Nc3ccccc3)nn2C)c(S)cc1Cl |  | > 200 µM | 166 µM |
| COc1ccc(OC2(c3cc(OC)ccc3OC)OC(=O)c3ccccc32)cc1 (stereo not drawn) |  | > 13.2 µM | > 13.2 µM |
| O=C(c1ccccc1)N1CCN2CCN=C(c3ccccc3)C21c1ccccc1 (stereo not drawn) |  | > 132 µM | > 132 µM |
| CCOC(=O)C(=O)Nc1c(C(C)C)cccc1C(C)C | inactive |  |  |
| CCCC(=O)Nc1c(I)cc(I)c(CC(CC)C(=O)O)c1I (stereo not drawn) |  | > 200 µM | > 200 µM |

| Compound | outcome | EC50 | IC50 |
| --- | --- | --- | --- |
| Cc1nc(-n2nc(-c3ccccc3)cc2-c2ccccc2)sc1C(=O)CC(=O)C(=O)Nc1ccc(Cl)c(Cl)c1 |  | > 45.7 µM | > 45.7 µM |
| c1cc[c]([Sn]([O]c2cccc3cccnc23)([O]c2cccc3cccnc23)[c]2ccccc2)cc1 | inactive |  |  |
| CC1CC2C(=O)N(c3ccccc3)C(=O)C2c2[nH]c3ccccc3c21 (stereo not drawn) | inactive |  |  |
| COC1=C(C)C(=O)C(=O)c2c(C)ccnc21 | inactive |  |  |
| O=S(=O)(Nc1nc2ccccc2nc1Nc1cccc2ccccc12)c1ccccc1 |  | > 200 µM | 15.8 µM |
| NC(N)=NCCN1CCCCCCC1 |  | > 200 µM | > 200 µM |
| COCCN1C(=O)C2c3[nH]c4ccccc4c3C3CCC(C(C)(C)C)CC3C2C1=O (stereo not drawn) |  | > 200 µM | 39.8 µM |
| O=S(=O)(c1ccc(O)cc1)c1ccc(I)cc1 |  | > 200 µM | 64.6 µM |
| c1ccc(C[P+]2(c3ccccc3)c3ccccc3-c3ccccc32)cc1 |  | > 200 µM | > 200 µM |
| O=[N+]([O-])c1ccc(SSc2ccc([N+](=O)[O-])cc2Cl)c(Cl)c1 |  | > 200 µM | 10 µM |
| O=C(O)CCC12CC[C@]3(O)OC(=O)[C@H](C[C@@H]1C(=O)O)C23 (stereo partly drawn) | inactive |  |  |
| CC(=O)NCCSSCc1ccccc1CS(=O)O |  | > 200 µM | 105 µM |
| CCc1nn(S(=O)(=O)c2ccc(C)cc2)c2c1CS(=O)(=O)CC2 |  | > 200 µM | > 200 µM |
| CCOC(=O)/C=C/[C@H](O[Si](c1ccccc1)(c1ccccc1)c1ccccc1)C(C)(C)C |  | > 200 µM | > 200 µM |
| COc1ccccc1C1c2cc3c(cc2OC(O)(CO)C1C(=O)O)OCO3 (stereo not drawn) (tested in a mixture with another compound) | inactive |  |  |
| CCOc1ccc(NC2=CC(=O)C(=O)c3ccccc32)cc1 |  | > 9.55 µM | > 9.55 µM |
| O=C1C(O)=C(c2ccc(Br)cc2)C(=O)C(O)=C1c1ccc(Br)cc1 |  | > 58.9 µM | 22.4 µM |
| CCOP(=O)(OCC)C1C(CO)OC(n2ccc(=O)[nH]c2=O)C1O (stereo not drawn) |  | > 200 µM | 74.1 µM |
| Cc1nnc2sc(C(=O)O)nn12 |  | > 200 µM | > 200 µM |
| O=C1c2cscc2C(=O)c2sccc21 |  | > 200 µM | 23.4 µM |
| O=C1CC2(CCNCC2)C(=O)N1N1CCOCC1 |  | > 200 µM | > 200 µM |
